We go through 3 compounds from patent US20190255042A1, “APPLICATION OF HEDGEHOG PATHWAY INHIBITOR IN TREATING FIBROSIS DISEASES” (IMPACT THERAPEUTICS, INC, priority 2016, published 2019).

The subject of experiment [1] is lung fibrosis model in mice induced by bleomycin. As to the kind of experiment: Therapeutic efficacy in lung fibrosis model in mice induced by bleomycin. As to conditions: n = 10, Mean ± Sem. The format is in vivo, C57BL/6 mice. As to the method: Experimental Methods: 60 male C57BL/6 mice were randomize into 6 groups: Blank control group (Group 1, n=10), model group (Group 2, BLM, n=10), Compound A 10 mpk group (Group 3, n=10), compound A 20 mpk group (Group 4, n=10), Compound A 20 mpk +BIBF1120 50 mpk (Group 5, n=10), and BIBF1120 50 mpk positive reference group (Group 6, n=10). One week after the mice were acclimated to the environment, 10 mice in the blank control group were given 50 μl of normal saline in the trachea, and other 50 mice were given 50 μl BLM (0.66 mg/kg, 2 ml/kg) in the trachea. After BLM infusion, 50 mice in BLM infusion group were randomly assigned to start treatment on the 5th day, once a day, with a treatment cycle of 20 days. The whole process was 25 days. After the experiment, the lung tissues were fixed in 10% neutral formalin, dehydrated by alcohol gradient, embedded with paraffin, stained by hematoxylin-eosin (H&E) and Masson trichrome staining. And the inflammatory area and degree of fibrosis of the lung tissues in mice were evaluated by APERIO ScanScope. Immunohistochemical staining of lung tissue was performed to quantify α-SMA positive fibroblasts in lung tissue and to calculate the percentage (%) of α-SMA staining in the entire lung stroma.

In experiment [2] the test system is unilateral pulmonary fibrosis model in SD rats. As to the kind of experiment: Prophylactic therapeutic efficacy in unilateral pulmonary fibrosis model in SD rats (bleomycin). The arrangement: key to Fibrosis score (Ashcraft): Ashcraft semi-quantitative fibrosis score; Evaluation of injury and inflammatory lesions of left lung: Fibrotic lesion edge / Evaluation of injury and inflammatory lesions of left lung: Fibrosis lesion: scale not given here. In kind it is in vivo. As to the method: 40 male SD rats were randomized into Model group (Group 1, n=8), positive drug group BIBF1120 60 mg/kg/d group (Group 2, n=8), Compound A 5 mg/kg/d group (Group 3, n=8), compound A 10 mg/kg/d group (Group 4, n=8) and Compound A 20 mg/kg/d (Group 5, n=8). On the modeling day, rats were anesthetized and exposed to trachea. Bleomycin was injected into trachea of each group (dosage: 3 mg/kg, volume: 1.0 ml/kg). Oral administration was performed 2 hours after modeling, once a day. On Day 15, all the animals were killed, the left lung was taken, the weight and volume of the left lung were measured, then fixed by formalin, the bronchioles were stained with HE, Masson trichrome. The bronchioles, final bronchiole and small pulmonary artery injury and inflammation invasion were evaluated by semi-quantitative score, and pulmonary fibrosis was evaluated by Ashcraft semi-quantitative score.

For experiment [3] the test system is unchanged. Briefly: Therapeutic efficacy in unilateral pulmonary fibrosis model in SD rats (bleomycin, dosing from D8). In kind it is in vivo. More on the design: Evaluation of injury and inflammatory lesions of left lung: Fibrotic lesion edge / Evaluation of injury and inflammatory lesions of left lung: Fibrosis lesion: scale not given here. The following applies: for Expression of Type I collagen (%) / Expression of α-SMA protein (%): left lung immunohistochemistry; for Evaluation of injury and inflammatory lesions of left lung: Fibrosis lesion / Evaluation of injury and inflammatory lesions of left lung: Fibrotic lesion edge: HE score; for Fibrosis area (left pulmonary): Masson trichrome. As to the method:
On the modeling day, rats were anesthetized and exposed to trachea. Bleomycin was injected into left trachea of each group (dosage: 3 mg/kg, volume: 1.0 ml/kg). Oral administration was performed on Day 8 after modeling, once a day. On Day 22, according to the KCI animal euthanasia SOP, animals in each group were given an overdose of sodium barbiturate and sacrificed under intraperitoneal anesthesia, the left lung was taken, the weight and volume of the left lung were measured, then fixed by formalin, the bronchioles were stained with HE, Masson trichrome. The bronchioles, final bronchiole and small pulmonary artery injury and inflammation invasion were evaluated by semi-quantitative score, and pulmonary fibrosis was evaluated by Ashcraft semi-quantitative score. Immunohistochemical staining of α-SMA, Type I collagen (Collagen-I) were performed at the same time, a full scan was performed by Hamamatsu NanoZoomer Digital Pathology (S210), the α-SMA positive area was semiquantitatively calculated from the unit area of the whole sheelt in pulmonary fibrosis foci, and the positive staining area of type-I collagent per unit of area was calculated.

The test system of experiment [4] is bleomycin-induced lung injury in a mouse model. As to conditions: Moshai et al., 2014; cited from earlier work.
The test system of experiment [5] is foodborne non-alcoholic fatty hepatitis (NASH) model in mice. As to conditions: Hirsova et al., Plos One 2013; cited from earlier work.
Setting [6] is: 60 mg/kg/d oral from modeling day, D15, HE score, mean ± sem, n = 8.
The mark [7] stands for this setting: 60 mg/kg/d oral from modeling day, D15, mean ± sem, n = 8.
Setting [8] is: 100 mpk oral D8 to D22, mean ± sem, n = 6.
Where [9] appears, read: 100 mpk oral D8 to D22 after modeling, mean ± sem.
Where [10] appears, read: 50 mpk oral D8 to D22, mean ± sem, n = 8.
The mark [11] stands for this setting: 50 mpk oral D8 to D22 after modeling, mean ± sem.

In the case of `COC(=O)c1ccc2c(c1)NC(=O)/C2=C(\Nc1ccc(N(C)C(=O)CN2CCN(C)CC2)cc1)c1ccccc1` [BIBF1120, Nintedanib ethylsulfonate, reference compound], in experiment [1] (50 mpk oral D5 to D25), the Inflammatory infiltration area is 4.33 ± 1.39 mm^2 and the “Total lung tissue area” value was determined as 87.02 ± 4.05 mm^2. Besides, the “Percentage of inflammatory area (%)” value in experiment [1] (50 mpk oral D5 to D25, ###p < 0.001 vs. BLM model group) is reported as 4.67 ± 1.32^### %. Besides, in experiment [1] (BIBF1120 50 mpk oral D5 to D25, lung tissue immunohistochemical staining), the “Percentage of positive α-SMA (%)” value worked out at 0.96 ± 0.20%. In experiment [2] (setting [6]), the “Evaluation of injury and inflammatory lesions of left lung: Fibrosis lesion” value (“Evaluation … Fibrosis lesion” for short) is reported as 7.88 ± 0.48; the “Evaluation of injury and inflammatory lesions of left lung: Fibrotic lesion edge” value (shortened to “Evaluation … Fibrotic lesion edge”) was 5.50 ± 0.25. In addition, in experiment [2] (60 mg/kg/d oral from modeling day, D15, Masson trichrome, mean ± sem, n = 8), the “Fibrosis area (left pulmonary fibrosis)” value came to 77.85 ± 10.90. Also, in experiment [2] (setting [7]), the “Fibrosis Score 1-3 (%)” value is reported as 75.00 ± 23.90%, the “Fibrosis Score 4-8 (%)” value was 25.00 ± 23.90%, the “Fibrosis score (Ashcraft)” value stood at 3.15 ± 0.65 and the “Volume of left lung” value is listed as 1.24 ± 0.17 cm^3. Besides, the “Weight of left lung” value in experiment [2] (setting [7]) is 1.18 ± 0.14 g. Also, in experiment [2] (BIBF1120 60 mg/kg/d, compound A 5, 10, 20 mg/kg/d), the “average score of fibrosis in the entire fibrosis lesion (ashcraft)” value is on record as “about 3 points”. Further, in experiment [3] (setting [8]), the “Expression of Type I collagen (%)” value was found to be 18.99 ± 1.19% and the “Expression of α-SMA protein (%)” value worked out at 7.36 ± 0.55%. Also, in experiment [3] (setting [9]), the “Evaluation … Fibrosis lesion” value came out at 7.00 ± 0.36; the “Evaluation … Fibrotic lesion edge” value amounted to 5.31 ± 0.28; the “Fibrosis area (left pulmonary)” value is 73.81 ± 1.14; the “Fibrosis Score 1-3 (%)” value came to 88.33 ± 4.01%. Further, in experiment [3] (setting [9]), the “Fibrosis Score 4-8 (%)” value is 11.67 ± 4.01%, the “Fibrosis score (Ashcraft)” value is given as 2.55 ± 0.18, the “Volume of left lung” value is 1.23 ± 0.09 cm^3 and the “Weight of left lung” value is 1.31 ± 0.09 g.

As to `CN(C)c1ccccc1CN1CCCN(Cc2ccccc2N(C)C)C1c1ccncc1` [GANT61], the “efficacy on pulmonary fibrosis” value in experiment [4] was “good therapeutic effect”.

With `CS(=O)(=O)c1ccc(C(=O)Nc2ccc(Cl)c(-c3ccccn3)c2)c(Cl)c1` [GDC0449, vismodegib, reference compound], in experiment [4], the “efficacy on pulmonary fibrosis” value is on record as “no efficacy”. Besides, the “damage and inflammatory response of terminal bronchioles within fibrosis lesions and pulmonary small artery compared with model group” value in experiment [3] (14 consecutive days, BIBF1120 100, Compound A 5, 15, 30, GDC0449 50 mg/kg/d, p<0.001) is listed as “significantly reduced”. Moreover, in experiment [3] (setting [10]), the “Expression of Type I collagen (%)” value was 19.06 ± 0.70% and the “Expression of α-SMA protein (%)” value turned out to be 7.74 ± 0.59%. In experiment [3] (setting [11]), the “Evaluation … Fibrosis lesion” value was determined as 6.38 ± 0.17; the “Evaluation … Fibrotic lesion edge” value is 4.80 ± 0.22; the “Fibrosis area (left pulmonary)” value is given as 67.96 ± 3.70; the “Fibrosis Score 1-3 (%)” value amounted to 95.00 ± 2.67%. For the same compound, in experiment [3] (setting [11]), the “Fibrosis Score 4-8 (%)” value came to 5.00 ± 2.67%, the “Fibrosis score (Ashcraft)” value was found to be 2.16 ± 0.11 and the “Weight of left lung” value is on record as 1.29 ± 0.09 g. The “degree of pulmonary fibrosis (Ashcraft score) compared with model group” value in experiment [3] (BIBF1120 100, Compound A 5, 15, 30, GDC0449 50 mg/kg/d, p<0.01) is “significantly better”. Also, the “amount of Type I collagen deposition in the fibrotic lesions compared with model group” value in experiment [3] (BIBF1120 100 mpk, Compound A 5 mpk, GDC0449 50 mpk) is “no significant difference”. The “positive rate of α-SMA in fibrosis lesions per unit area compared with model group” value in experiment [3] (BIBF1120 100 mpk, GDC0449 50 mpk) is listed as “no significant difference”. Besides, the “treatment effect on fibrosis compared with BIBF1120 100 mg/kg/d” value in experiment [3] (compound A 5, 15 and 30 mg/kg, GDC0449 50 mg/kg/d, 14 consecutive days) is “the same as that of BIBF1120”. In experiment [5], the “effect on liver injury, hepatic inflammation and fibrosis” value was “attenuating hepatic inflammation and fibrosis”.
